The values below come from ChEMBL document CHEMBL1221343, “Caelestines A-D, brominated quinolinecarboxylic acids from the Australian ascidian Aplidium caelestis” (J Nat Prod, 2010).

The source made the active and inactive calls. The calls are words filed in the database; no cut-off is given here.

For one data set, the system named is MCF7. The experiment in a line: Cytotoxicity against human MCF7 cells at 100 uM. It counts as functional.
A further data set relates to MM96L. As to the kind of experiment: Cytotoxicity against human MM96L cells at 100 uM. It counts as functional.
The nature of data set [1]: Cytotoxicity against human NFF cells at 100 uM. It counts as cell-based. The conditions noted are these: read-out: INH.
Data set [2] deals with Staphylococcus aureus. The experiment in a line: Antimicrobial activity against multidrug-resistant Staphylococcus aureus ATCC 43300 at 0.1 to 10 mM after 20 hrs by CLSI broth microdilution method. It counts as functional, organism-based. In general terms: Dilution methods test growth across graded concentrations, often in twofold steps.
Data set [3] concerns Staphylococcus aureus. As to the kind of experiment: Antimicrobial activity against methicillin-sensitive Staphylococcus aureus ATCC 25923 at 0.1 to 10 mM after 20 hrs by CLSI broth microdilution method. It counts as functional, organism-based.
The test system of a further data set is Escherichia coli. The experiment in a line: Antimicrobial activity against Escherichia coli ATCC 25922 at 0.1 to 10 mM after 20 hrs by CLSI broth microdilution method. It counts as functional, organism-based.
A further data set deals with Enterococcus faecalis. As to the kind of experiment: Antimicrobial activity against Enterococcus faecalis ATCC 19433 at 0.1 to 10 mM after 20 hrs by CLSI broth microdilution method. It counts as functional, organism-based.
The next data set has as its system Pseudomonas aeruginosa. The experiment in a line: Antimicrobial activity against Pseudomonas aeruginosa NCTC 10662 at 0.1 to 10 mM after 20 hrs by CLSI broth microdilution method. It counts as functional, organism-based.
A further data set concerns Candida albicans. The experiment in a line: Antimicrobial activity against Candida albicans ATCC 10231 at 0.1 to 10 mM after 20 hrs by CLSI broth microdilution method. It counts as functional, organism-based.

A word on the inhibition: it is the drop in the measured response relative to a control, in per cent. A lower inhibition goes with a response near the control. With `COc1c(Br)c(Br)cc2c(=O)cc(C(=O)O)[nH]c12`, the inhibition at 100 µM with MCF7 was determined as 38%; with MM96L, 52%. In addition, the cytotoxicity at 100 µM in data set [1] stood at 68%. Moreover, the outcome with Staphylococcus aureus [2], in the data set on Staphylococcus aureus [3], with Escherichia coli, in the data set with Enterococcus faecalis, in the data set on Pseudomonas aeruginosa and with Candida albicans was inactive.
As for `COc1cc(Br)cc2c(=O)cc(C(=O)O)[nH]c12`, the inhibition at 100 µM came to 40% with MCF7 and 54% with MM96L. Also, the cytotoxicity at 100 µM in data set [1] stood at 58%. The outcome in the data set with Staphylococcus aureus [2], in the data set with Staphylococcus aureus [3], in the data set on Escherichia coli, in the data set on Enterococcus faecalis, in the data set on Pseudomonas aeruginosa and with Candida albicans was inactive.
In the case of `O=C(O)c1cc(=O)c2cc(Br)c(Br)cc2[nH]1`, the inhibition at 100 µM in the data set with MCF7 stood at 49%; in the data set with MM96L it was 69%. In addition, the cytotoxicity at 100 µM in [1] was determined as 66%. Also, the result in the data set on Staphylococcus aureus [2], with Staphylococcus aureus [3], with Escherichia coli, in the data set with Enterococcus faecalis, in the data set on Pseudomonas aeruginosa and in the data set with Candida albicans was inactive.
On to `O=C(O)c1cc(O)c2ccc(Br)cc2n1`, for which the figures for the inhibition at 100 µM with MCF7 and in the data set on MM96L were 39% and 62%, respectively. Moreover, in data set [1], the cytotoxicity at 100 µM came to 57%. For the same molecule, the result with Staphylococcus aureus [2], with Staphylococcus aureus [3], with Escherichia coli, in the data set with Enterococcus faecalis, with Pseudomonas aeruginosa and with Candida albicans was inactive.
